The values that follow come from ChEMBL document CHEMBL5385878, “Synthesis and structure-activity optimization of 7-azaindoles containing aza-β-amino acids targeting the influenza PB2 subunit” (Eur J Med Chem, 2023).

As a reminder, the inhibition is the drop in the measured response relative to a control, in per cent. Usually IC50 stands for the point on the concentration scale where inhibition reaches its midpoint. As a reminder, the EC50 is the midpoint of the concentration-response curve. As usually defined, the CC50 is the concentration that lowers cell viability or growth by half. One may read the Kd as the concentration at which binding is half-saturated. As usually defined, the half-life is the time in which the quantity being followed falls by half.

Data set [1] addresses Polymerase basic protein 2 (Influenza A virus (strain A/Puerto Rico/8/1934 H1N1)) (UniProt P03428). The data set is described as follows: Inhibition of influenza A virus polymerase PB2 expressed in HEK293T cells cotransfected with PGK-renilla-luciferase assessed as remaining activity at 10 uM pretreated with cells for 2 hrs followed by enzyme addition and measured after 24 hrs by dual-Glo luciferase assay relative to control. To be noted: time 26.0 hrs. It is filed as cell-based.

For data set [2] the target is unchanged. Kind of data set: Inhibition of influenza A virus polymerase PB2 expressed in HEK293T cells cotransfected with PGK-renilla-luciferase at 10 uM pretreated with cells for 2 hrs followed by enzyme addition and measured after 24 hrs by dual-Glo luciferase assay relative to control. To be noted: time 26.0 hrs. It is filed as cell-based.
For data set [3], the target named is T1, Polymerase basic protein 2 (Influenza A virus (strain A/Puerto Rico/8/1934 H1N1), UniProt P03428). Kind of data set: Inhibition of influenza A virus polymerase PB2 expressed in HEK293T cells cotransfected with PGK-renilla-luciferase pretreated with cells for 2 hrs followed by enzyme addition and measured after 24 hrs by dual-Glo luciferase assay. It is filed as cell-based.

Data set [4] concerns Influenza A virus. Kind of data set: Antiviral activity against Influenza A virus A/WSN/33(H1N1) infected in A549 cells assessed as reduction in cell cytopathic effect incubated with cells for 2 hrs prior to viral infection followed by MDCK cells addition at 24 hrs pi and measured after 72 hrs by Reed-Muench method. It is filed as functional, organism-based. Background: Protection from cytopathic effect is a common read-out in antiviral testing.

A short description of data set [5]: Cytotoxicity against human A549 cells assessed as reduction in cell viability incubated for 96 hrs by CCK-8 method. Format: toxicity, cell-based. For orientation: Formazan colour is commonly taken as a measure of viable cells.
The nature of data set [6]: Selectivity index, ratio of CC50 for human A549 cells to EC50 for antiviral activity against Influenza A virus A/WSN/33(H1N1) infected in A549 cells. It is filed as toxicity, cell-based. Particulars: read-out: Ratio CC50/EC50.
Data set [7] addresses T1, Polymerase basic protein 2. Kind of data set: Binding affinity to recombinant Influenza A virus polymerase PB2 cap-binding domain (318 to 413 residues) assessed as dissociation constant by ITC method. In general terms: Isothermal titration calorimetry measures the heat released or taken up as one component is titrated into another.
For data set [8], the system named is Influenza A virus. Kind of data set: Antiviral activity against Influenza A virus A/WSN/33(H1N1) infected in BALB/c mouse assessed as log reduction in lung viral titer at 12 mg/kg, po BID administered starting from 2 hrs before infection and measured on day 3 (reference value: 6.916 +/- 0.4736). It is filed as functional. To be noted: time 3 day.
Data set [9] has as its system Influenza A virus. The data set is described as follows: Antiviral activity against Influenza A virus A/WSN/33(H1N1) infected in BALB/c mouse assessed as log10 reduction in viral titer at 12 mg/kg, po BID administered starting from 2 hrs before infection and measured on day 3. It is filed as functional. Particulars: time 3 day.
Data set [10] relates to Influenza A virus. The data set is described as follows: Antiviral activity against wild type Influenza A/WSN/33 at 0.3 uM. Format: functional, organism-based.
The target of data set [11] is Voltage-gated inwardly rectifying potassium channel KCNH2 (Homo sapiens, UniProt Q12809). The data set is described as follows: Inhibition of hERG by manual patch clamp method. It is filed as toxicity.
The nature of data set [12]: Stability in mouse plasma assessed as half life. Format: ADME, cell-free.
Data set [13] is described as follows: Toxicity in BALB/c mouse assessed as animal death at 40 mg/kg, po administered once daily for 3 days. It is filed as organism-based. To be noted: in vivo, 72 h, time 3 day.
Data set [14] can be described thus: Toxicity in BALB/c mouse assessed as poisoning symptom at 40 mg/kg, po administered once daily for 3 days. It is filed as organism-based. Particulars: in vivo, 72 h, time 3 day.
Data set [15] is described as follows: Toxicity in BALB/c mouse assessed as change in body weight at 40 mg/kg, po administered for 3 days. Format: organism-based. To be noted: in vivo, 72 h, time 3 day.
Data set [16] in a line: Toxicity in BALB/c mouse assessed as change in ALT level at 40 mg/kg, po administered for 3 days. It is filed as organism-based. To be noted: in vivo, 72 h, time 3 day.
The nature of data set [17]: Toxicity in BALB/c mouse assessed as change in AST level at 40 mg/kg, po administered for 3 days. It is filed as organism-based. To be noted: in vivo, 72 h, time 3 day.
Data set [18] can be described thus: Toxicity in BALB/c mouse assessed as change in Cr level at 40 mg/kg, po administered for 3 days. Format: organism-based. To be noted: in vivo, 72 h, time 3 day.
Data set [19] in a line: Toxicity in BALB/c mouse infected with Influenza A virus A/WSN/33(H1N1) assessed as body weight loss at 12 mg/kg, po BID administered starting from 2 hrs before infection and measured on day 3. Particulars: in vivo, 72 h, time 3 day. It is filed as organism-based.
Data set [20] concerns Influenza A virus. Kind of data set: Antiviral activity against Influenza A virus A/WSN/33(H1N1) infected in BALB/c mouse assessed as recovery of AST level at 12 mg/kg, po BID administered starting from 2 hrs before infection and measured on day 3. Format: functional, organism-based. Particulars: time 3.0 day.
Data set [21] has as its system Influenza A virus. The data set is described as follows: Antiviral activity against Influenza A virus A/WSN/33(H1N1) infected in BALB/c mouse assessed as recovery of ALT level at 12 mg/kg, po BID administered starting from 2 hrs before infection and measured on day 3. Format: functional, organism-based. To be noted: time 3.0 day.
Data set [22] relates to Influenza A virus. Kind of data set: Antiviral activity against Influenza A virus A/WSN/33(H1N1) infected in BALB/c mouse assessed as increase in survival ratio at 12.5 to 25 mg/kg, po BID administered starting from 2 days post-infection to 9 days and measured for 15 days. Format: functional. Particulars: dose 12.5-25 mg/kg, time 15 day.
The nature of data set [23]: Toxicity in BALB/c mouse infected with Influenza A virus A/WSN/33(H1N1) assessed as body weight loss at 12.5 to 25 mg/kg, po BID administered starting from 2 days post-infection to 9 days and measured for 15 days. It is filed as organism-based. To be noted: in vivo, 360 h, dose 12.5-25 mg/kg, time 15 day.
The target of data set [24] is Polymerase basic protein 2 (Influenza A virus (strain A/Puerto Rico/8/1934 H1N1)) (UniProt P03428). Kind of data set: Potency index, ratio of m7GTP Kd to test compound Kd for recombinant Influenza A virus polymerase PB2 cap-binding domain (318 to 413 residues).

Calls of active or inactive are those of the source. No cut-off for these calls is given here. Where only a bound is given, the exact number is not on record here.

Polymerase basic protein 2 (Influenza A virus (strain A/Puerto Rico/8/1934 H1N1)), sequence (P03428 whole entry, looked up, the tested form may be a part): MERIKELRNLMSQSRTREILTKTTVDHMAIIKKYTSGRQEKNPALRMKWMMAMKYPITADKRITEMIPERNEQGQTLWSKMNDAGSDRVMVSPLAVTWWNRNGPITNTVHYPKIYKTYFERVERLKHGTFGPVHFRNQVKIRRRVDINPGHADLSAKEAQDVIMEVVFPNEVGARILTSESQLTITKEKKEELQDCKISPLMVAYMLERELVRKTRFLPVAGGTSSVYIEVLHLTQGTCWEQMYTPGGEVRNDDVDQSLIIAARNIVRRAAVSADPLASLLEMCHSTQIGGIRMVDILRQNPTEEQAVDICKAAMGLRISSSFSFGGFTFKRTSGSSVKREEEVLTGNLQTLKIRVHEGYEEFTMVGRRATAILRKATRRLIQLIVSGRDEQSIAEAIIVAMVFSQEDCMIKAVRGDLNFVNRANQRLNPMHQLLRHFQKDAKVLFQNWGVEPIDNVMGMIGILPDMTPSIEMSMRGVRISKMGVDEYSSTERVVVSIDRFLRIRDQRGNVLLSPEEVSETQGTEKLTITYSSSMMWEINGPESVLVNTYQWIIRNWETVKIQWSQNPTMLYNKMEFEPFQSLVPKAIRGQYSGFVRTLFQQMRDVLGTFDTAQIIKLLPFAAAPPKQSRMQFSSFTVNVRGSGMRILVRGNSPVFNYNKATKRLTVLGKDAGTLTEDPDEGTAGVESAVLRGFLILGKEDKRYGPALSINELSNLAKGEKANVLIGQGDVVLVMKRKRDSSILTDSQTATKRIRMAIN
T1 sequence (P03428 whole entry): as the sequence (P03428 whole entry, looked up, the tested form may be a part) above
Voltage-gated inwardly rectifying potassium channel KCNH2, sequence (Q12809 whole entry): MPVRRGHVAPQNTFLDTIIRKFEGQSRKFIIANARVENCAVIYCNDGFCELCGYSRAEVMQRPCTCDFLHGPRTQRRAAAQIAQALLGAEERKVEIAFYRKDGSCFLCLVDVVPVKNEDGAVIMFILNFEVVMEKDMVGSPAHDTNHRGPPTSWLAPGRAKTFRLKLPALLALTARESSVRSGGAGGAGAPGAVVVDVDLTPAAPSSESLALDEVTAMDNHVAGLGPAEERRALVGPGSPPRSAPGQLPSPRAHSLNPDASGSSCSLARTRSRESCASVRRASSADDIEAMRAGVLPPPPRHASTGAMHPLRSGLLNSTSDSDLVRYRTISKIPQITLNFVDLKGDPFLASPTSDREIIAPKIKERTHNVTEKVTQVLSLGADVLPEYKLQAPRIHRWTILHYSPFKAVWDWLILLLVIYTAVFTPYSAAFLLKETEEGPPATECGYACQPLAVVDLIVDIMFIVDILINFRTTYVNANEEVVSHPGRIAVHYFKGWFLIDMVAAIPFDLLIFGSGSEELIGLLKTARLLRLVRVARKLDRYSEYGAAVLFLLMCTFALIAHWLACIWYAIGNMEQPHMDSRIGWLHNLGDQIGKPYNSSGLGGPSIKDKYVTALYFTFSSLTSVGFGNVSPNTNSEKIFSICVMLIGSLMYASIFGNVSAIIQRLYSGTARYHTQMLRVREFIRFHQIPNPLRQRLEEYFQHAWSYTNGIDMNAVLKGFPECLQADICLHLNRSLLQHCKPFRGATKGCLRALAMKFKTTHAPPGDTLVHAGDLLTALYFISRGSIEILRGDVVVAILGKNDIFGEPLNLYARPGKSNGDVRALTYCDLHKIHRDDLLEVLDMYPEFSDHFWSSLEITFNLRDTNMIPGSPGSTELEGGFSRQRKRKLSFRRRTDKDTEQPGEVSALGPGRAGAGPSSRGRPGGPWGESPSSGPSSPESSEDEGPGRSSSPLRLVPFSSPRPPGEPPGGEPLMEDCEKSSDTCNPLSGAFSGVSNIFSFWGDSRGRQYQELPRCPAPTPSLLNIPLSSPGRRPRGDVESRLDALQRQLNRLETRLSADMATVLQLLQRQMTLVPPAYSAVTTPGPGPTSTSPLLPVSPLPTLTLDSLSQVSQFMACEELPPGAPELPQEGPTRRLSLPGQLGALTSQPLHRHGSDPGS

With `O=C(O)[C@@H]1CC2(CC2)CN1Nc1nc(-c2c[nH]c3ncc(F)cc23)ncc1F`, the Activity in data set [1] is 21%. Further, in data set [2], the inhibition was determined as 79%. Further, the IC50 in data set [3] turned out to be 3070 nM. Moreover, the EC50 in the data set with Influenza A virus [4] was 1450 nM. In data set [5], the CC50 at 96 h came to 87000 nM. Moreover, the selectivity ratio in [6] was determined as 60. Moreover, the Kd in data set [7] amounted to 145 nM.

`O=C(O)CN(Cc1ccccc1)Nc1nc(-c2c[nH]c3ncc(F)cc23)ncc1F`: the Activity in data set [1] is above 100%. Also, in data set [2], the inhibition turned out to be 0%.

With `CC(C)(C)CN(CC(=O)O)Nc1nc(-c2c[nH]c3ncccc23)ncc1F`, the Activity in data set [1] worked out at 65%. Also, the inhibition in data set [2] came to 35%.

As to `O=C(O)[C@H]1C2CCC(CC2)[C@@H]1Nc1nc(-c2c[nH]c3ncc(F)cc23)ncc1F` [PIMODIVIR], in data set [1], the Activity was determined as 0.1%. Further, in data set [2], the inhibition is 99.9%. Moreover, in [3], the IC50 is 4 nM. In addition, the EC50 in the data set on Influenza A virus [4] was found to be 1 nM. Besides, the “log(activity)” value was determined as 0.964 in the data set with Influenza A virus [8] and 6 in the data set with Influenza A virus [9].

`O=C(O)[C@@H]1CCCCN1Nc1nc(-c2c[nH]c3ncc(F)cc23)ncc1F`: the Activity in data set [1] stood at 12%. The inhibition in data set [2] was found to be 88%. For the same compound, the IC50 in [3] stood at 1450 nM. In addition, in the data set on Influenza A virus [4], the EC50 is 1150 nM. Moreover, the CC50 at 96 h in data set [5] is above 100000 nM. Also, the selectivity ratio in data set [6] was above 87.

Turning to `O=C(O)[C@@H]1Cc2ccccc2CN1Nc1nc(-c2c[nH]c3ncccc23)ncc1F`, the Activity in data set [1] is 73%. Besides, the inhibition in [2] came out at 27%.

With `O=C(O)CN(Nc1nc(-c2c[nH]c3ncccc23)ncc1F)C1CCC1`, the Activity in data set [1] is above 100%. Moreover, the inhibition in data set [2] is 0%.

Regarding `CC(C)(C)N(CC(=O)O)Nc1nc(-c2c[nH]c3ncccc23)ncc1F`, the Activity in [1] turned out to be 0.2%. The inhibition in [2] was 99.8%. Further, in [3], the IC50 was determined as 290 nM. Besides, the EC50 with Influenza A virus [4] came out at 170 nM. Also, the CC50 at 96 h in [5] was above 100000 nM. Also, the selectivity ratio in [6] is above 597. Further, the Kd in data set [7] stood at 468 nM.

For `O=C(O)[C@@H]1C[C@@H]2CCCC[C@@H]2N1Nc1nc(-c2c[nH]c3ncc(F)cc23)ncc1F`, the Activity in data set [1] came to 0.1%. The inhibition in [2] is 99.9%. For the same compound, the IC50 in data set [3] was found to be 360 nM. Further, the EC50 with Influenza A virus [4] amounted to 50 nM. Moreover, the CC50 at 96 h in [5] is 54100 nM. In addition, the selectivity ratio in data set [6] turned out to be 1024. In addition, the Kd in data set [7] was found to be 202 nM.

With `CCOC(=O)C1=C[C@@H](OC(CC)CC)[C@H](NC(C)=O)[C@@H](N)C1` [OSELTAMIVIR], in the data set on Influenza A virus [4], the concentration giving a half-maximal response (EC50) amounted to 40 nM.

`O=C(O)CN(Nc1nc(-c2c[nH]c3ncc(F)cc23)ncc1F)C1CCCC1`: the Activity in data set [1] was determined as 46%. Besides, the inhibition in data set [2] came to 54%.

`CC(C1CC1)N(CC(=O)O)Nc1nc(-c2c[nH]c3ncc(F)cc23)ncc1F` (stereo not given): the Activity in data set [1] amounted to 41%. Further, the inhibition in data set [2] is 59%.

On to `O=C(O)CN(Nc1nc(-c2c[nH]c3ncccc23)ncc1F)C1CCCCC1`, for which the Activity in data set [1] is 34%. The inhibition in data set [2] turned out to be 65%.

For the compound `CC(C)(C)N(CC(=O)O)Nc1nc(-c2c[nH]c3ncc(F)cc23)ncc1F`, the Activity in data set [1] is 0.3%; in [13] it was “Non-Toxic”; in data set [14] it was “Non-Toxic”; in data set [15] it was “Non-Toxic”; in [16], “Non-Toxic”; in [17] it was “Non-Toxic”. Further, the Activity entry is “Non-Toxic” in data set [18], “Non-Toxic” in data set [19], 85.7% with Influenza A virus [22] and “Non-Toxic” in data set [23]. The inhibition in data set [2] came out at 99.7%. In addition, the IC50 in [3] is 60 nM; in data set [11] it was above 10000 nM. Besides, the EC50 in the data set with Influenza A virus [4] was 30 nM. In addition, the CC50 at 96 h in data set [5] was above 100000 nM. In data set [6], the selectivity ratio was above 2920. Also, the Kd in data set [7] was determined as 46.2 nM. The result in the data set with Influenza A virus [10], in the data set on Influenza A virus [20] and with Influenza A virus [21] was Active. Further, the half-life in [12] was 12 h. In addition, the “log(activity)” value worked out at 4.988 in the data set on Influenza A virus [8] and 2 with Influenza A virus [9]. Moreover, the Ratio in data set [24] worked out at 3850.

`O=C(O)[C@@H]1CCCN1Nc1nc(-c2c[nH]c3ncc(F)cc23)ncc1F`: the Activity in data set [1] worked out at 62%. Besides, the inhibition in data set [2] was 38%.

`O=C(O)[C@@H]1CCCCN1Nc1nc(-c2c[nH]c3ncccc23)ncc1F`: the Activity in [1] is 67%. Further, the inhibition in data set [2] was 33%.

Turning to `O=C(O)[C@@H]1Cc2ccccc2CN1Nc1nc(-c2c[nH]c3ncc(F)cc23)ncc1F`, in [1], the Activity worked out at 62%. Further, the inhibition in data set [2] came out at 38%.

With `O=C(O)CN(Nc1nc(-c2c[nH]c3ncccc23)ncc1F)C1CCCC1`, the Activity in data set [1] amounted to 58%. For the same compound, the inhibition in [2] is 42%.
